What was measured:
[1] = tested on: cardiozole cramp; settings: in animals; cited from earlier work
[2] = Long-term storage stability of purified gabapentin (lactam formation, HPLC vs. standard); type: physicochemical; settings: purified bulk gabapentin
Description: Gabapentin purified according to these procedures contains less than 0.5% lactam as measured by HPLC vs. standard.

[3] = according to Augart; cited from earlier work

| SMILES | effect against cardiozole cramp [1] | amount of lactam after storage ([2]; a year of storage at 25° C. and 50% relative humidity) | conversion of gabapentin to its corresponding lactam ([2]; a year of storage at 25° C. and 60% relative humidity) | amount of lactam after storage ([2]; a year of storage at 55° C. and 50% relative humidity) | toxicity relative to gabapentin [3] |
| --- | --- | --- | --- | --- | --- |
| NCC1(CC(=O)O)CCCCC1 [Gabapentin, 1-(aminomethyl)-1-cyclohexaneacetic acid] | protective effect against cardiozole cramp | less than 0.5 % by weight | ≤ 0.2 % by weight of gabapentin | less than 0.5 % by weight |  |
| O=C1CC2(CCCCC2)CN1 [lactam] |  |  |  |  | higher toxicity than gabapentin |

— patent US6531509B2, “Stable gabapentin containing more than 20 ppm of chlorine ion” (Teva Pharmaceutical Industries Ltd., priority 2000, dated 2003)
